# Molecular target: T1, PDE4B catalytic zone (PDE4Bcat) (Homo sapiens, UniProt Q07343)
# T1 construct: made in house; host or cells: Sf9 insect cells (baculovirus, Bac-to-Bac / Gateway)
# Test: Phosphodiesterase 4 inhibitory activity ([3H]-cAMP, recombinant PDE4Bcat)
# Assay type: biochemical
# Conditions: 30° C. 20 minutes, read-out: IC50 (μmol/L) PDE4
# T1 sequence (Q07343 330-659 limits assumed): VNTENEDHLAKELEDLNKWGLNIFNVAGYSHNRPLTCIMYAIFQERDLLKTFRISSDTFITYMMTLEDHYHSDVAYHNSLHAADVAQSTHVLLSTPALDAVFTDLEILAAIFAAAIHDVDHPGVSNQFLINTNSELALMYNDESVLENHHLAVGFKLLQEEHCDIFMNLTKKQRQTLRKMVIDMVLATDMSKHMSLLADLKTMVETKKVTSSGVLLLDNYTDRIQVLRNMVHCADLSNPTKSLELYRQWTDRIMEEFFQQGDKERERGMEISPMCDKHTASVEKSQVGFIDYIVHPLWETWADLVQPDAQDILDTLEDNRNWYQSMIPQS
row,SMILES,IC50 [µmol/L]
1,"COc1ccc(-c2ccc3[nH]c(=O)ccc3c2)c2cc(C(F)(F)F)nn12 [Example 50, 6-(7-Methoxy-2-trifluoromethylpyrazolo[1,5-a]pyridin-4-yl)quinolin-2(1H)-one]",< 0.01
2,"COc1ccc(-c2cc(=O)[nH]c3ccccc23)c2cc(C(F)(F)F)nn12 [Example 51, 4-(7-Methoxy-2-trifluoromethylpyrazolo[1,5-a]pyridin-4-yl)quinolin-2(1H)-one]",0.01 to 0.1
3,"COc1ccc(-c2ccc3cc[nH]c(=O)c3c2)c2cc(C(F)(F)F)nn12 [Example 54, 7-(7-Methoxy-2-trifluoromethylpyrazolo[1,5-a]pyridin-4-yl)iso quinolin-1(2H)-one]",< 0.01
4,"COc1ccc(-c2ccc3c(c2)CCC(=O)N3)c2cc(C(F)(F)F)nn12 [Example 56, 6-(7-Methoxy-2-trifluoromethylpyrazolo[1,5-a]pyridin-4-yl)-3,4-dihydroquinolin-2(1H)-one]",0.01 to 0.1
5,"COc1ccc(-c2ccc3c(c2)CC(=O)N3)c2cc(C(F)(F)F)nn12 [Example 57, 5-(7-Methoxy-2-trifluoromethylpyrazolo[1,5-a]pyridin-4-yl)indolin-2-one]",0.01 to 0.1
6,"COc1ccc(-c2ccc3[nH]c(=O)ccc3c2)c2c(Cl)c(C(F)(F)F)nn12 [Example 61, 6-(3-Chloro-7-methoxy-2-trifluoromethylpyrazolo[1,5-a]pyridin-4-yl)quinolin-2(1H)-one]",< 0.01
7,"CCc1ccc2c(-c3ccc4[nH]c(=O)ccc4c3)ccc(OC)c2n1 [Example 67, 2-Ethyl-8-methoxy-5,6′-biquinolin-2′(1′H)-one]",0.01 to 0.1
8,"COc1ccc(-c2ccc3[nH]c(=O)ccc3c2)c2ccc(C)nc12 [Example 68, 8-Methoxy-2-methyl-5,6′-biquinolin-2′(1′H)-one]",0.01 to 0.1
9,"COc1ccc(-c2ccc3[nH]c(=O)ccc3c2)c2ccc(C(F)(F)F)nc12 [Example 69, 8-Methoxy-2-trifluoromethyl-5,6′-biquinolin-2′(1′H)-one]",0.01 to 0.1
10,"COc1ccc(-c2ccc3[nH]c(=O)ccc3c2)c2nc(C(F)(F)F)nn12 [Example 70, 6-(5-Methoxy-2-trifluoromethyl[1,2,4]triazolo[1,5-a]pyridin-8-yl) quinolin-2(1H)-one]",< 0.01
11,"COc1ccc(-c2ccc3[nH]c(=O)ccc3c2)c2c1OCNC2=O [Example 72, 8-Methoxy-5-(2-oxo-1,2-dihydroquinolin-6-yl)-2H-benzo[e][1,3]oxazin-4-(3H)-one]",0.01 to 0.1
12,"COc1ccc(-c2ccc3[nH]c(=O)ccc3c2)c2nccnc12 [Example 86, 6-(8-Methoxyquinoxalin-5-yl)quinolin-2(1H)-one]",< 0.01
13,"COc1ccc(-c2ccc3[nH]c(=O)ccc3c2)c2cncnc12 [Example 88, 6-(8-methoxyquinazolin-5-yl)quinolin-2(1H)-one]",0.01 to 0.1
14,"COc1ccc(-c2ccc3[nH]c(=O)ccc3c2)n2cc(C(F)(F)F)nc12 [Example 90, 6-(8-Methoxy-2-trifluoromethylimidazo[1,2-a]pyridin-5-yl)quinolin-2(1H)-one]",0.01 to 0.1
15,"COc1ccc(-c2ccc3c(ccc(=O)n3C)c2)c2cc(C(F)(F)F)nn12 [Example 91, 6-(7-Methoxy-2-trifluoromethylpyrazolo[1,5-a]pyridin-4-yl)-1-methyl quinolin-2(1H)-one]",< 0.01
16,"COc1ccc(-c2ccc3c(ccc(=O)n3CC(=O)O)c2)c2cc(C(F)(F)F)nn12 [Example 93, 2-(6-(7-Methoxy-2-trifluoromethylpyrazolo[1,5-a]pyridin-4-yl)-2-oxoquinolin-2(1H)-yl)acetic acid]",0.01 to 0.1
17,COc1ccc(-c2ccc3[nH]c(=O)ccc3c2)c2cc(C(F)(F)F)sc12 [Example 111],0.01 to 0.1
18,"CCc1nc2c(OC)ccc(-c3ccc4[nH]c(=O)ccc4c3)c2o1 [Example 112, 6-(2-Ethyl-4-methoxybenzo[d]oxazol-7-yl)quinolin-2(1H)-one]",< 0.01
19,"COc1ccc(-c2ccc3c(c2)CCC(=O)N3)c2c(Cl)c(C(F)(F)F)nn12 [Example 116, 6-(3-Chloro-7-methoxy-2-trifluoromethylpyrazolo[1,5-a]pyridin-4-yl)-3,4-dihydroquinolin-2(1H)-one]",0.01 to 0.1
20,"COc1ccc(-c2ccc3c(c2)CCC(=O)N3C)c2c(Cl)c(C(F)(F)F)nn12 [Example 117, 6-(3-Chloro-7-methoxy-2-trifluoromethylpyrazolo[1,5-a]pyridin-4-yl)-1-methyl-3,4-dihydroquinolin-2(1H)-one]",0.01 to 0.1
21,"COc1ccc(-c2ccc3[nH]c(=O)ccc3c2)c2cccnc12 [Example 120, 6-(8-Methoxyquinolin-5-yl)quinolin-2(1H)-one]",0.01 to 0.1
22,"COc1ccc(-c2ccc3c(c2)CC(C)NC3=O)c2cc(C(F)(F)F)nn12 (stereo not shown) [Example 122, 6-(7-Methoxy-2-trifluoromethylpyrazolo[1,5-a]pyridin-4-yl)-3-methyl-3,4-dihydroisoquinolin-1(2H)-one]",0.01 to 0.1
23,"COc1ccc(-c2ccc3c(=O)[nH]cc(Cl)c3c2)c2c(Cl)c(C(F)(F)F)nn12 [Example 125, 4-Chloro-6-(3-chloro-7-methoxy-2-trifluoromethylpyrazolo[1,5-a]pyridin-4-yl)isoquinolin-1(2H)-one]",< 0.01
24,"COc1ccc(-c2ccc3c(=O)[nH]cc(Cl)c3c2)n2c(Cl)c(C(F)(F)F)nc12 [Example 126, 4-Chloro-6-(3-chloro-8-methoxy-2-trifluoromethylimidazo[1,2-a]pyridin-5-yl)isoquinolin-1(2H)-one]",< 0.01
25,CNc1ccc(-c2ccc3c(ccc(=O)n3C)c2)c2c(Cl)c(C(F)(F)F)nn12 [Example 137],< 0.01
26,"CNc1ccc(-c2ccc3c(=O)[nH]cc(Cl)c3c2)c2cc(C(F)(F)F)nn12 [Example 138, 4-Chloro-6-(7-(methylamino)-2-trifluoromethylpyrazolo[1,5-a]pyridin-4-yl)isoquinolin-1(2H)-one]",< 0.01
27,"CNc1ccc(-c2ccc3c(=O)[nH]cc(Cl)c3c2)c2c(Cl)c(C(F)(F)F)nn12 [Example 139, 4-Chloro-6-(3-chloro-7-(methylamino)-2-trifluoromethylpyrazolo[1,5-a]pyridin-4-yl)isoquinolin-1(2H)-one]",< 0.01
28,"Nc1ccc(-c2ccc3[nH]c(=O)ccc3c2)c2cc(C(F)(F)F)nn12 [Example 140, 6-(7-Amino-2-trifluoromethylpyrazolo[1,5-a]pyridin-4-yl)quinolin-2(1H)-one]",< 0.01
29,"CNc1ccc(-c2ccc3c(=O)[nH]cc(Cl)c3c2)n2cc(C(F)(F)F)nc12 [Example 144, 4-Chloro-6-(8-(methylamino)-2-trifluoromethylimidazo[1,2-a]pyridin-5-yl)isoquinolin-1(2H)-one]",< 0.01

# Other lines, results leading:
row,IC50 [µmol/L],SMILES
1,0.01 to 0.1,"COc1ccc(-c2cccc3c(=O)[nH]ccc23)c2cc(C(F)(F)F)nn12 [Example 52, 5-(7-Methoxy-2-trifluoromethylpyrazolo[1,5-a]pyridin-4-yl)iso quinolin-1(2H)-one]"
2,< 0.01,"CNc1ccc(-c2ccc3[nH]c(=O)ccc3c2)c2c(Cl)c(C(F)(F)F)nn12 [Example 65, 6-(3-Chloro-7-methylamino-2-trifluoromethylpyrazolo[1,5-a]pyridin-4-yl)quinolin-2(1H)-one]"
3,< 0.01,CNc1ccc(-c2ccc3c(c2)CCNC3=O)c2c(Cl)c(C(F)(F)F)nn12 [Example 66]
4,< 0.01,"COc1ccc(-c2ccc3[nH]c(=O)ccc3c2)c2sc(C(F)(F)F)nc12 [Example 71, 6-(4-Methoxy-2-trifluoromethylbenzo[d]thiazol-7-yl)quinolin-2(1H)-one]"
5,0.01 to 0.1,"COc1ccc(-c2ccc3[nH]c(=O)ccc3c2)c2c1OCC(=O)N2 [Example 74, 8-Methoxy-5-(2-oxo-1,2-dihydroquinolin-6-yl)-2H-benzo[b][1,4]oxazin-3(4H)-one]"
6,0.01 to 0.1,"COc1ccc(-c2ccc3c(=O)[nH]ccc3c2)c2cccnc12 [Example 80, 6-(8-Methoxyquinolin-5-yl)isoquinolin-1(2H)-one]"
7,0.01 to 0.1,"CCc1ccc2c(-c3ccc4cc[nH]c(=O)c4c3)ccc(OC)c2n1 [Example 83, 7-(2-Ethyl-8-methoxyquinolin-5-yl)isoquinolin-1(2H)-one]"
8,0.01 to 0.1,"CCc1cc2c(-c3ccc4[nH]c(=O)ccc4c3)ccc(OC)n2n1 [Example 87, 6-(2-Ethyl-7-methoxypyrazolo[1,5-a]pyridin-4-yl)quinolin-2(1H)-one]"
9,0.01 to 0.1,"CCOC(=O)Cn1c(=O)ccc2cc(-c3ccc(OC)n4nc(C(F)(F)F)cc34)ccc21 [Example 92, Ethyl 2-(6-(7-methoxy-2-trifluoromethylpyrazolo[1,5-a]pyridin-4-yl)-2-oxo-quinolin-2(1H)-yl)acetate]"
10,< 0.01,"COc1ccc(-c2ccc3c(ccc(=O)n3Cc3ccccc3)c2)c2cc(C(F)(F)F)nn12 [Example 94, 1-Benzyl-6-(7-methoxy-2-trifluoromethylpyrazolo[1,5-a]pyridin-4-yl)quinolin-2(1H)-one]"
11,< 0.01,"COc1ccc(-c2ccc3[nH]c(=O)ccc3c2)c2cc(C3CC3)nn12 [Example 114, 6-(2-Cyclopropyl-7-methoxypyrazolo[1,5-a]pyridin-4-yl)quinolin-2(1H)-one]"
12,0.01 to 0.1,"COc1ccc(-c2ccc3[nH]c(=O)ccc3c2)c2[nH]c(C(F)(F)F)nc12 [Example 118, 6-(4-Methoxy-2-trifluoromethyl-1H-benzo[d]imidazol-7-yl)quinolin-2(1H)-one; or 6-(7-methoxy-2-trifluoromethyl-1H-benzo[d]imidazol-4-yl)quinolin-2(1H)-one]"
13,< 0.01,"COc1ccc(-c2ccc3[nH]c(=O)ccc3c2)c2cc(C(F)(F)F)oc12 [Example 119, 6-(7-Methoxy-2-trifluoromethylbenzofuran-4-yl)quinolin-2(1H)-one]"
14,0.01 to 0.1,"Nc1ccc(-c2ccc3c(=O)[nH]cc(Cl)c3c2)c2cc(C(F)(F)F)nn12 [Example 141, 6-(7-Amino-2-trifluoromethylpyrazolo[1,5-a]pyridin-4-yl)-4-chloro isoquinolin-1(2H)-one]"

# From patent US20110178041A1, “HETEROCYCLIC BIARYL DERIVATIVE AND PDE INHIBITOR COMPRISING SAME AS ACTIVE INGREDIENT” (priority 2008, published 2011)
